Experimental data reported in PMC12040169 (PLOS Biology, 2025).

Experiment: in vitro
Conditions: human, hela cells, % viability

Going from `CCOC(=O)c1sc(NC(=O)C2CCCCC2)nc1C` [CBK057893] to `CCC1CCCCN1C(=O)c1cccc(C)c1C` (stereo not drawn) [CBK081501], the viability at 28.5 h, 10 µM rises from 92.3% to 96.5%.

Going from `O=C(NC(=O)N1CCOCC1)c1csnn1` [CBK005561] to `CC(C)Oc1ccc(C(=O)N2CC(C)C(N3CCOCC3)C2)cn1` (stereo not drawn) [CBK304497], the viability at 28.5 h, 10 µM rises from 86.4% to 110%.

First: COc1cccc2c(C(C(=O)O)N3CCN(c4ccc(C(F)(F)F)cn4)CC3)c[nH]c12 (stereo not drawn) [CBK286857]
Second: COc1ccc(CN2CCN(C(=O)c3cccc(F)c3)CC2)c(OC)c1OC [CBK074523]
The viability at 28.5 h, 10 µM of the first is lower: 89.7% for the first, 95.5% for the second.

Compared with `Cc1cc(C(=O)NCCC(=O)O)c2ccccc2n1` [CBK286573], `Cc1ccc(-c2nc3ccccc3c(=O)o2)cc1C` [CBK288137] is higher in viability at 28.5 h, 10 µM: 86% for the first, 97.4% for the second.

First: CC(C)(O)c1cc(CC2(NCc3ccco3)COC2)no1 [CBK289255]
Second: CC(C)(c1noc(C2CCOCC2)n1)S(=O)(=O)c1ccc(Br)cc1 [CBK305543]
The viability at 28.5 h, 10 µM of the first is lower: 92.6% for the first, 93.5% for the second.

First: O=C(NCc1nnc(-c2cccs2)o1)C1(c2ccccc2)CC1 [CBK284635]
Second: CC1(c2ccco2)NC(=O)N(Cc2ncc(-c3cccs3)o2)C1=O (stereo not drawn) [CBK305398]
The viability at 28.5 h, 10 µM of the first is lower: 96.2% for the first, 98.8% for the second.

First: Cc1csc2c(C3CCN(C(=O)c4ccn(C)n4)CC3)nc(C)n12 [CBK285248]
Second: O=C(c1ccccc1)N1CCC(c2cccc(Cc3ccccc3Cl)n2)CC1 [CBK286085]
The viability at 28.5 h, 10 µM of the first is higher: 105% for the first, 88.2% for the second.

First: O=C1CC(c2ccccc2)n2nc(C(F)(F)F)nc2N1 (stereo not drawn) [CBK288063]
Second: O=C1CSC(Nc2nc(-c3ccccc3)cs2)=N1 [CBK026880]
The viability at 28.5 h, 10 µM of the first is higher: 114% for the first, 104% for the second.

Compared with `O=C(Nc1ccc(F)cc1)N1C2CCC1CC(O)(c1cccnc1)C2` (stereo not drawn) [CBK281946], `Cn1ccnc1C1(O)CC2CCC(C1)N2C(=O)c1cccc(Cl)c1` (stereo not drawn) [CBK284091] is lower in viability at 28.5 h, 10 µM: 89.9% for the first, 86% for the second.

Compared with `O=C(CSc1nc(-c2cccc([N+](=O)[O-])c2)cs1)NCC1CCCO1` (stereo not drawn) [CBK268020], `O=C(c1cccc(F)c1)N1CCCC1c1n[nH]cc1-c1ccncc1` (stereo not drawn) [CBK283437] is higher in viability at 28.5 h, 10 µM: 92.8% for the first, 93.2% for the second.

Compared with `Cc1cc(C)n(-c2cc(N3CCN(S(=O)(=O)Cc4ccccc4)CC3)ccc2[N+](=O)[O-])n1` [CBK264407], `CCn1cc(C2CN(S(=O)(=O)Cc3ccccc3)CCO2)cn1` (stereo not drawn) [CBK304129] is lower in viability at 28.5 h, 10 µM: 115% for the first, 106% for the second.

Compared with `Cn1ncc2c1CCCN(C(=O)COc1cccc(F)c1)C2` [CBK285257], `CC(CN1CCCC1)NC(=O)c1ccc2c(c1)ncn2C` (stereo not drawn) [CBK281715] is higher in viability at 28.5 h, 10 µM: 96.9% for the first, 102% for the second.

Compared with `COc1c(Cl)cc(Cl)cc1CNCc1cccnc1` [CBK270142C], `Cc1cc2c(s1)c1cnn(Cc3cccnc3)c(=O)c1n2C` [CBK284154] is lower in viability at 28.5 h, 10 µM: 94.2% for the first, 79.1% for the second.

Going from `CC(C)(C)OC(=O)NC1CCC(NCc2c[nH]c(-c3ccccc3)n2)CC1` (stereo not drawn) [CBK056692] to `CCc1cc(=O)[nH]c(-c2ccc(N3CC(C(N)=O)CCC3C)nc2)n1` (stereo not drawn) [CBK306448], the viability at 28.5 h, 10 µM rises from 80.9% to 93.1%.

Compared with `O=C1c2ccccc2NC(c2ccc(O)cc2)N1/N=C/c1ccc(O)cc1` (stereo not drawn) [CBK262985], `Cc1cc(Cl)ccc1NC(=O)CCC(=O)N/N=C/c1ccc(O)cc1` [CBK261974] is higher in viability at 28.5 h, 10 µM: 84.5% for the first, 89.6% for the second.

Compared with `CC(=O)c1ccc(-c2cc(C(=O)NC3CCc4ccccc43)cnc2-c2ccc(Cl)cc2)s1` (stereo not drawn) [CBK036762], `O=C(Nc1cccnc1)c1cc(-c2ccc(Cl)cc2)on1` [CBK116555] is lower in viability at 28.5 h, 10 µM: 96.9% for the first, 92.8% for the second.

Compared with `Cc1ccc(O)c(CN[C@@H]2CCC(=O)N[C@H]2c2cc(F)cc(F)c2)c1` [CBK283132], `Fc1cccc(-c2nccnc2NCC2CC2)c1` [CBK036767] is higher in viability at 28.5 h, 10 µM: 94% for the first, 94.4% for the second.

First: CCN1C(=O)C2(CC(=O)N(CCCN(C)C(=O)c3ccco3)C2=O)c2cc(C)ccc21 (stereo not drawn) [CBK075141]
Second: O=C1CC(c2ccco2)CC(=O)C1=CNCCN1CCN(C(=O)Nc2ccc(Cl)cc2)CC1 (stereo not drawn) [CBK264743]
The viability at 28.5 h, 10 µM of the first is higher: 94.3% for the first, 80.2% for the second.

Going from `COc1ccc(-c2csc(Nc3ccc(N)cc3)n2)cc1OC` [CBK074456] to `COc1ccc(C2c3cc(OC)c(OC)cc3CC(=O)N2c2cccc(C(=O)O)c2)cc1OC` (stereo not drawn) [CBK296118], the viability at 28.5 h, 10 µM rises from 83.4% to 94.1%.

Going from `O=C1c2ccccc2CN1c1cccc(Cl)c1Cl` [CBK109916] to `O=C(CSc1ccccc1)Nc1cc(Cl)ccc1O` [CBK265837], the viability at 28.5 h, 10 µM rises from 82.3% to 109%.

First: COc1cc2c(cc1OC)CN(CC(N)=O)CC2 [CBK126391]
Second: CSc1cc(C)c2c(c1)COC1(CCN(CC3CC3)CC1)O2 [CBK061383]
The viability at 28.5 h, 10 µM of the first is lower: 86.8% for the first, 94.1% for the second.

Going from `CCN(CC)CCCNC(=O)N1CCN(Cc2ccccc2)CC1` [CBK155655] to `c1ccc(C2(CN3CCN(Cc4cccnc4)CC3)CC2)cc1` [CBK282793], the viability at 28.5 h, 10 µM rises from 89.8% to 117%.

Going from `O=C(NCCCn1ccnc1)c1ncoc1-c1ccccc1F` [CBK283917] to `COc1ccc(-c2cnccc2-n2ccnc2)cn1` [CBK177147], the viability at 28.5 h, 10 µM rises from 96% to 113%.

Compared with `Cn1c(=O)oc2ccc(C(=O)CSc3nnnn3-c3ccccc3)cc21` [CBK300488], `O=C1CC(c2nc3ccccc3n2CCc2ccccc2)CN1c1ccccc1` (stereo not drawn) [CBK266311] is higher in viability at 28.5 h, 10 µM: 90.1% for the first, 101% for the second.

First: CSc1ccc(S(=O)(=O)NCCSCc2ccc(C)cc2)cc1 [CBK268510]
Second: CC(C)c1ccc(S(=O)(=O)NCCC(C)(C)C)cc1 [CBK043640]
The viability at 28.5 h, 10 µM of the first is higher: 104% for the first, 95.4% for the second.

First: CCOC(=O)C(Cc1ccccc1)NC(=O)c1ccc(C)nc1 (stereo not drawn) [CBK305952]
Second: O=C(O)Cc1ccc(OCC(=O)NCCCSc2ccccc2)cc1 [CBK296630]
The viability at 28.5 h, 10 µM of the first is lower: 89.6% for the first, 91.9% for the second.

Compared with `CCc1c(C)nc(SC(C(=O)O)c2ccccc2)c(C#N)c1C` (stereo not drawn) [CBK270174], `CCc1c(C)nc2ccc(Br)cc2c1SCCC(=O)O` [CBK126914] is higher in viability at 28.5 h, 10 µM: 94.9% for the first, 113% for the second.

Compared with `CCc1csc(CCNc2ccc(-c3nc(C4CC4)no3)cn2)n1` [CBK306608], `CCCc1nc(NC(CC)c2nc(C)c(C)s2)c2cnn(C)c2n1` (stereo not drawn) [CBK307261] is lower in viability at 28.5 h, 10 µM: 91.3% for the first, 89.1% for the second.

Going from `CC(C)Sc1nnc(N2C(N)=C(C#N)C(c3cccs3)C3=C2CCCC3=O)s1` (stereo not drawn) [CBK293989] to `CC(C)n1cc(C(=O)N2CCCCC2c2nc3ccccc3[nH]2)cn1` (stereo not drawn) [CBK283679], the viability at 28.5 h, 10 µM rises from 82.8% to 102%.

First: Fc1ccc(OCCNCCC2NCCc3c2[nH]c2ccccc32)cc1 (stereo not drawn) [CBK066970]
Second: Cc1ccc(CCCC(=O)N2CCc3c([nH]c4c(C)cccc34)C23CCN(Cc2ccc(F)cc2)C3)cc1 (stereo not drawn) [CBK066979]
The viability at 28.5 h, 10 µM of the first is lower: 97.6% for the first, 99.2% for the second.

First: Cc1n[nH]c(C)c1CCCCCOc1ccccc1 [CBK027211C]
Second: c1ccc(OCCN2CCCN(c3cc(OCC4COc5ccccc5O4)ncn3)CC2)cc1 (stereo not drawn) [CBK083395T]
The viability at 28.5 h, 10 µM of the first is lower: 84.3% for the first, 87.7% for the second.

Compared with `COCCOC(=O)N1CCC(N(C)Cc2ccc(-c3ccc(S(C)(=O)=O)cc3)nc2)CC1` [CBK165258T], `CC(=O)N1CCC(Cn2nc(-c3ccc(F)cc3)ccc2=O)CC1` [CBK282406] is higher in viability at 28.5 h, 10 µM: 96.7% for the first, 101% for the second.

First: Cc1ccc(C(=O)NC[C@H]2O[C@@H](CC(=O)N3CCCC3)[C@H](O)[C@@H]2O)cc1 [CBK288912]
Second: CC(C)(CNC(=O)Cn1cc(C(=O)NC2CCCCC2)ccc1=O)c1cccc(F)c1 [CBK286110]
The viability at 28.5 h, 10 µM of the first is higher: 98.9% for the first, 88.4% for the second.

First: O=C(CO)N1CC2(CCN(CCO)CC2)c2ccccc21 [CBK131507]
Second: O=C(c1ccccc1)C1(CO)COCc2nccn21 (stereo not drawn) [CBK009980]
The viability at 28.5 h, 10 µM of the first is lower: 79.7% for the first, 88.7% for the second.

First: COC(=O)CCC(=O)N1CCC(Cn2cncn2)(C2CCCCC2)CC1 [CBK136810]
Second: Cc1cn(CC(=O)N2CCC3(CCCNC3)C2)c(=O)[nH]c1=O (stereo not drawn) [CBK153231C]
The viability at 28.5 h, 10 µM of the first is lower: 90.8% for the first, 95.9% for the second.

Going from `CCn1cc(CN2CCCN(C(=O)c3ccc(Cl)cn3)CC2)cn1` [CBK304760] to `O=C(CCCC1CC1)N1CCn2c(nnc2-c2cncc(Br)c2)C1` [CBK304767], the viability at 28.5 h, 10 µM rises from 84.3% to 96.4%.

Compared with `CC1(C)C(=O)OC(C(=O)c2ccc(Br)cc2)C(C)(C)C1=O` (stereo not drawn) [CBK264600], `CCc1ccc(C(=O)Nc2ccc(NC(C)=O)cc2C(F)(F)F)cc1` [CBK295202] is lower in viability at 28.5 h, 10 µM: 90.3% for the first, 84.1% for the second.

Compared with `Oc1c(Br)cc(Cl)cc1/C=N/Nc1nnc2c(n1)[nH]c1ccccc12` [CBK262041], `Cn1c(=O)[nH]c(=O)c2c1nc(N/N=C/c1cc(Br)ccc1O)n2CCO` [CBK139415] is lower in viability at 28.5 h, 10 µM: 114% for the first, 97.8% for the second.

First: C/C(=C1/SC(=S)N(c2cccc(C(=O)O)c2)C1=O)c1cccc([N+](=O)[O-])c1 [CBK265168]
Second: O=[N+]([O-])c1cccc(C(Nc2cccnc2)c2cc(Cl)c3cccnc3c2O)c1 (stereo not drawn) [CBK268629]
The viability at 28.5 h, 10 µM of the first is higher: 100% for the first, 93.7% for the second.

Compared with `COc1ccc(C(=O)Nc2nc(OCC(F)(F)F)cnc2/C=C\c2ccccc2)c(OC)c1` [CBK145367], `COCC(C)NC(=O)c1nn(-c2nc3ccccc3s2)c2ccccc12` (stereo not drawn) [CBK048488] is lower in viability at 28.5 h, 10 µM: 104% for the first, 92.6% for the second.

Going from `O=C(O)/C=N/NC(=O)c1ccco1` [CBK260923] to `CCOC(=O)c1ccc(-n2c(CCC(=O)O)ccc2-c2ccc(F)cc2)cc1O` [CBK266010], the viability at 28.5 h, 10 µM rises from 89.5% to 94.1%.

Going from `c1cnc(NCc2cc3n(n2)CCN(CC2CCCNC2)C3)nc1` (stereo not drawn) [CBK306981] to `CC(C)(C)c1[nH]c2ncccc2c1CN1CCSCC1` [CBK285340], the viability at 28.5 h, 10 µM falls from 102% to 93.6%.

Compared with `CC(C)N(C(=O)Cn1cccc2cc(C(F)F)nc1-2)C(C)C` [CBK285012], `Cc1nc(C(Cc2ccsc2)NC(=O)Cn2cccn2)sc1C` (stereo not drawn) [CBK284781] is higher in viability at 28.5 h, 10 µM: 85.5% for the first, 93.9% for the second.

First: O=S(=O)(NCC1COc2ccccc2O1)c1cc(Cl)sc1Cl (stereo not drawn) [CBK057394]
Second: CN(Cc1ccccc1)c1nccnc1-c1ccsc1 [CBK037394]
The viability at 28.5 h, 10 µM of the first is lower: 85.4% for the first, 91% for the second.

In the case of `CN(CCC#N)C(=O)c1cc2cc(Cl)ccc2[nH]1` [CBK287956], the viability at 28.5 h, 10 µM is reported as 98%.

Same assay, conditions: human, hela cells, % viability, bulk resorufin, single well

With `O=C1NC(=S)N(c2ccc(F)cc2)C(=O)/C1=C\NC1CCN(Cc2ccccc2)CC1` [CBK261825] the viability at 28.5 h, 10 µM was 93%.
